The test system of data set [1] is Jurkat T cells expressing tEGFR. The experiment in a line: T cell activation by rcSso7d-based CARs (luciferase-based cytotoxicity assay, IFN-γ ELISA), Example 2. As to conditions: primary human T cells, 4 hours, E:T 2:1; for cytotoxicity: binder fused to "Ser" CAR backbone (monovalent interaction). On the procedure:
Luciferase-expressing tumour cells were co-cultured with CAR T cells at an E:T cell ratio of 2:1 with 10,000 target cells/well in white round-bottom 96 well plates (Sigma Aldrich) for 4 hours at 37° C. in cytotoxicity assay medium, consisting of phenol-free RPMI (Thermo Scientific), 10% FCS, 1% L-Glutamine (Thermo Scientific) and 1% penicillin-streptomycin. Finally, remaining living cells were quantified by determination of the residual luciferase activity of the co-culture. After equilibration to room temperature for 10 minutes, luciferin was added to the cell suspension (150 μg/mL final concentration; Perkin Elmer) and luciferase activity was measured 20 minutes later using the ENSPIRE Multimode plate reader. The percentage of specific lysis was determined with the following formula:
% specific lysis=100−((RLU from well with effector and target cell co-culture)/(RLU from well with target cells only)×100)).
Cytokine secretion of primary CAR T cells was assessed by co-cultivation with target cells at E:T ratios of 1:1 or 2:1 in flat-bottom 96 well plates for 4 hours or 24 hours at 37° C. In some experiments, released cytokines were quantified in the supernatants from the co-culture experiments for determining cytotoxicity. The supernatants were centrifuged (1600 rpm, 7 minutes, 4° C.) to remove remaining cells and debris and were subsequently frozen at −80° C. For analysis of secreted IFN-γ, ELISA was performed using the Human IFN gamma ELISA Ready-SET-Go!® kit (eBioscience) according to the manufacturer's instructions. Measurements were conducted using the ENSPIRE Multimode plate reader.

Data set [2] deals with human EGFR. The experiment in a line: Binding affinities of rcSso7d-based antigen binding moieties (titration on tEGFR Jurkat T cells, SPR on hEGFR-Fc). The note with it: comparison in words; own values only in FIG. 2; read-out: affinity of the binding moiety, stated as comparable to that of scFv 4D5-5. On the procedure:
Jurkat T cells were engineered to express high levels of the respective tumour antigen. […] After washing in PBS, cells were resuspended in PBS containing 0.1% BSA (Sigma Aldrich) and incubated with varying concentrations of the binder proteins fused to sfGFP in order to determine the affinities of the antigen binding moieties towards the respective tumour antigen. After incubation for 1 hour at 4° C. while shaking, plates were centrifuged (450 g, 7 minutes, 4° C.), the supernatant was discarded and cells were acquired with a BD LSRFortessa. Cells were kept on ice to avoid endocytosis. The Kd was obtained by curve fitting using Microsoft Excel (Microsoft Corporation).
SPR experiments were performed with a Biacore T200 instrument (GE Healthcare). All experiments were conducted in degassed and filtered PBS, pH 7.4, containing 0.1% BSA and 0.05% Tween-20 (Merck Millipore), at 25° C. hEGFR-Fc (R&D) was immobilized on a Protein A sensor chip (GE Healthcare) at a flow rate of 10 μL/min for 60 seconds at a concentration 6.67 μg/mL. To determine the affinity of rcSso7d-based antigen binding moieties, five concentrations (depending on the expected Kd of the antigen binding moiety) of the respective protein were injected at a flow rate of 30 μL/min for 15 seconds in the single-cycle kinetic mode, followed by a dissociation step (30 seconds). […]

Data set [3] has as its target human EGFR. The note with it: Traxlmayr et al., J Biol Chem. 2016; cited from earlier work.
The test system of data set [4] is Jurkat T cells expressing tHER2. The experiment in a line: Functional screening of affibody-based CARs, luciferase-based cytotoxicity assay, Example 4. It is filed as cell-based, human. As to conditions: affibody variant in CAR backbone 8ser-BB-FKBP (36V)-3z; 10 nM AP20187 or DMSO; 4 hours, E:T 2:1.
Protocol: Luciferase-expressing tumour cells were co-cultured with CAR T cells at an E:T cell ratio of 2:1 with 10,000 target cells/well in white round-bottom 96 well plates (Sigma Aldrich) for 4 hours at 37° C. in cytotoxicity assay medium, consisting of phenol-free RPMI (Thermo Scientific), 10% FCS, 1% L-Glutamine (Thermo Scientific) and 1% penicillin-streptomycin. Finally, remaining living cells were quantified by determination of the residual luciferase activity of the co-culture. After equilibration to room temperature for 10 minutes, luciferin was added to the cell suspension (150 μg/mL final concentration) and luciferase activity was measured 20 minutes later using the ENSPIRE Multimode plate reader. The percentage of specific lysis was calculated with the following formula:
Dimerization of transgenes was induced prior to co-cultivation experiments. […] The homodimerization agent AP20187 was diluted in cell culture medium and was added at 10 nM final concentration. Addition of the vehicle control DMSO at the same concentration served as control. Cells were incubated at 37° C. for 30 minutes to ensure efficient dimerization of transgenes and subsequently used for in vitro experiments.

Consider four substances from patent US20220041687A1, “A GROUP OF CHIMERIC ANTIGEN RECEPTORS (CARS)” (ST. ANNA KINDERKREBSFORSCHUNG, priority 2018, published 2022).

Read-outs that look alike come from different tables or passages of the source.

As to “E11.4.1-G25A: alanine mutant G25A of rcSso7d E11.4.1, EGFR binding moiety”, in data set [1], the cytotoxicity entry was “triggered potent cytotoxicity also upon monovalent interaction”.

On to “E11.4.1-G32A: low affinity alanine mutant G32A of rcSso7d E11.4.1, EGFR binding moiety with the lowest tested affinity”, for which the Kd in the data set on human EGFR [2] is approximately 1100 nM. The “T cell activation in response to target cells” value is “efficiently triggered T cell activation” in data set [1] (binder fused to cysteine-containing CAR backbone ("Cys", bivalent)) and “did not or only poorly trigger the T cells” in data set [1] (binder fused to serine-containing CAR backbone ("Ser", monovalent)).

Regarding “rcSso7d E11.4.1: well characterized rcSso7d-based antigen binding moiety which binds to human EGFR (Traxlmayr et al.) [reference compound]”, the Kd on human EGFR [3] was 19 nM. Further, the cytotoxicity result in data set [1] is “triggered potent cytotoxicity also upon monovalent interaction”.

On to “zHER2-WT: high-affinity HER2 affibody with framework mutations N23A and S33K”, for which the “capacity to trigger cytotoxicity in T cells in presence or absence of AP20187” value in data set [4] was “triggered efficient target cell lysis independent of presence of AP20187”.
